In this experiment the target is recombinant Human Phosphodiesterase B2 (PDE4B2) (Homo sapiens, UniProt Q07343). Kind of experiment: Human Phosphodiesterase B2 Alpha Screen Assay. It counts as biochemical. To be noted: recombinant human PDE4B2, cAMP substrate, 60 min at room temperature. As for the experimental part: Human Phosphodiesterase B2 Alpha Screen Assay
Chain of recombinant Human Phosphodiesterase B2 (PDE4B2) (Q07343 1-564 isoform Q07343-2): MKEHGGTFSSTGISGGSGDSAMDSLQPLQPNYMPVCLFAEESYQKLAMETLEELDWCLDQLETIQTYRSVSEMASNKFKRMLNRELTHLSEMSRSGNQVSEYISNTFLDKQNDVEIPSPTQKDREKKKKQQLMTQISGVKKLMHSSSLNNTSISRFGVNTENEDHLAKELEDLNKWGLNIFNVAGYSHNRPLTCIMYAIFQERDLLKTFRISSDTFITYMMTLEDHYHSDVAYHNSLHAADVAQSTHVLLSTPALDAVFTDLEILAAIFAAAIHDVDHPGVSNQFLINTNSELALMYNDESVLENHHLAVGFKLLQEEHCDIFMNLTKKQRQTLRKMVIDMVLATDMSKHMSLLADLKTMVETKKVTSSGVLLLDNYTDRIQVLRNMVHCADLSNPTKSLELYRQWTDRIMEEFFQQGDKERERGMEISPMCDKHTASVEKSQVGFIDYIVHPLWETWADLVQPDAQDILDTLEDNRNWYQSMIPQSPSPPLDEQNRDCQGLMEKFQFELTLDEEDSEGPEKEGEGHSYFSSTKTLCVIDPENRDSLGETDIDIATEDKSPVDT
The assay uses recombinant Human Phosphodiesterase B2 (PDE4B2) produced in house (PrAZL0133), stored at −20° C. The substrate uses cAMP, part of the Alpha Screen cAMP kit (Perkin Elmer, Cat #6760625M), stored at 4° C. The Alpha Screen kit also includes biotinylated cAMP, acceptor and donor beads.
The assay additions were as follows: Test compounds and controls were added to white 384-well flat-bottom plates (Greiner, Cat #781075), 0.2 μl in 100% DMSO, followed by 10 μl PDE4B2 in reaction buffer. The reaction buffer constitution was: 50 mM Tris (pH 7.5), 8.3 mM MgCl2, 1.7 mM EGTA and 0.01% (w/v) Brij®35. The enzyme and the compounds were incubated at room temperature for 15 minutes. Then 10 μl cAMP in reaction buffer was added. The assay was stopped after 60 minutes incubation at room temperature by adding 10 μl acceptor beads in detection buffer with 40 mM EDTA. The detection buffer constitution was: 5 mM Tris (pH 7.5), 0.1% (w/v) BSA and 0.1% (v/v) Tween 20. This addition followed by an addition of 10 μl donor beads in detection buffer, with biotinylated cAMP. The plates were then incubated, dark at room temperature, for 5 hours followed by measurement on a Fusion™-α analyser. IC50 values (presented in Table 1) were determined using Xlfit curve fitting using model 205.
As a reminder, the IC50 is the midpoint of a concentration-inhibition curve. For the molecule `CCc1nn(C2CCCC2)c2c1C(=O)NCC(c1ccccc1)=N2` [Example 1, 1-Cyclopentyl-3-ethyl-7-phenyl-5,6-dihydropyrazolo[3,4-e][1,4]diazepin-4(1H)-one], the IC50 was 0.33 nM.

Consider `CCc1nn(C2CCCC2)c2c1C(=O)NCC(c1ccc(OC)cc1)=N2` [Example 2, 1-cyclopentyl-3-ethyl-7-(4-methoxyphenyl)-5,6-dihydropyrazolo[3,4-e][1,4]diazepin-4(1H)-one], for which the IC50 was 0.98 nM.

Take `CCc1nn(-c2ccc(F)cc2)c2c1C(=O)NCC(c1ccccc1)=N2` [Example 3, 3-ethyl-1-(4-fluorophenyl)-7-phenyl-5,6-dihydropyrazolo[3,4-e][1,4]diazepin-4(1H)-one]: the IC50 turned out to be 6.1 nM.

For `CCc1nn(-c2cccc([N+](=O)[O-])c2)c2c1C(=O)NCC(c1ccccc1)=N2` [Example 4, 3-ethyl-1-(3-nitrophenyl)-7-phenyl-5,6-dihydropyrazolo[3,4-e][1,4]diazepin-4(1H)-one], the IC50 turned out to be 4.8 nM.

With `CCc1nn(-c2ccc(S(C)(=O)=O)cc2)c2c1C(=O)NCC(c1ccccc1)=N2` [Example 5, 3-ethyl-1-[4-(methylsulfonyl)phenyl]-7-phenyl-5,6-dihydropyrazolo[3,4-e][1,4]diazepin-4(1H)-one], the IC50 stood at 43 nM.

Take `CCc1nn(-c2ccccc2)c2c1C(=O)NCC(c1ccccc1)=N2` [Example 6, 3-Ethyl-1,7-diphenyl-5,6-dihydropyrazolo[3,4-e][1,4]diazepin-4(1H)-one]: the half-inhibitory concentration (IC50) came to 11 nM.

Take `CCc1nn(C2CCCC2)c2c1C(=O)NCC(c1ccc(OC)c(OC)c1)=N2` [Example 7, 1-Cyclopentyl-7-(3,4-dimethoxyphenyl)-3-ethyl-5,6-dihydropyrazolo[3,4-e][1,4]diazepin-4(1H)-one]: the IC50 turned out to be 1.47 nM.

Take `CCc1nn(C2CCCC2)c2c1C(=O)NCC(c1ccc(Br)cc1)=N2` [Example 8, 7-(4-Bromophenyl)-1-cyclopentyl-3-ethyl-5,6-dihydropyrazolo[3,4-e][1,4]diazepin-4(1H)-one]: the IC50 came to 0.84 nM.

On to `CCc1nn(C2CCCC2)c2c1C(=O)NCC(c1ccc(C)cc1)=N2` [Example 9, 1-Cyclopentyl-3-ethyl-7-(4-methylphenyl)-5,6-dihydropyrazolo[3,4-e][1,4]diazepin-4(1H)-one], for which the half-inhibitory concentration (IC50) turned out to be 0.61 nM.

Consider `CCc1nn(C2CCCC2)c2c1C(=O)NCC(c1ccccc1OC)=N2` [Example 10, 1-Cyclopentyl-3-ethyl-7-(2-methoxyphenyl)-5,6-dihydropyrazolo[3,4-e][1,4]diazepin-4(1H)-one], for which the half-maximal inhibitory concentration (IC50) turned out to be 0.91 nM.

For the molecule `CCc1nn(C2CCCC2)c2c1C(=O)NCC(c1ccc(O)c(C(=O)OC)c1)=N2` [Example 11, Methyl 5-(1-cyclopentyl-3-ethyl-4-oxo-1,4,5,6-tetrahydropyrazolo[3,4-e][1,4]diazepin-7-yl)-2-hydroxybenzoate], the IC50 was 0.59 nM.

As for `CCc1nn(C2CCCC2)c2c1C(=O)NCC(c1ccc(Cl)cc1)=N2` [Example 12, 7-(4-Chlorophenyl)-1-cyclopentyl-3-ethyl-5,6-dihydropyrazolo[3,4-e][1,4]diazepin-4(1H)-one], the IC50 came to 0.57 nM.

On to `CCc1nn(C2CCCC2)c2c1C(=O)NCC(c1ccc(F)c(F)c1)=N2` [Example 13, 7-(3,4-Difluorophenyl)-1-cyclopentyl-3-ethyl-5,6-dihydropyrazolo[3,4-e][1,4]diazepin-4(1H)-one], for which the 50% inhibitory concentration (IC50) was 0.73 nM.

As to `CCc1nn(C2CCCC2)c2c1C(=O)NCC(c1cc(OC)ccc1OC)=N2` [Example 14, 1-Cyclopentyl-7-(2,5-dimethoxyphenyl)-3-ethyl-5,6-dihydropyrazolo[3,4-e][1,4]diazepin-4(1H)-one], the IC50 was 0.5 nM.

With `CCc1nn(C2CCCC2)c2c1C(=O)NCC(c1ccc(OCc3ccccc3)cc1)=N2` [Example 15, 7-[4-(Benzyloxy)phenyl]-1-cyclopentyl-3-ethyl-5,6-dihydropyrazolo[3,4-e][1,4]diazepin-4(1H)-one], the IC50 was 0.9 nM.

Take `CCc1nn(C2CCCC2)c2c1C(=O)NCC(c1ccc3c(c1)OCCCO3)=N2` [Example 16, 1-Cyclopentyl-7-(3,4-dihydro-2H-1,5-benzodioxepin-7-yl)-3-ethyl-5,6-dihydropyrazolo[3,4-e][1,4]diazepin-4(1H)-one]: the IC50 came to 0.43 nM.

As to `CCc1nn(C2CCCC2)c2c1C(=O)NCC(c1ccco1)=N2` [Example 17, 1-Cyclopentyl-3-ethyl-7-(2-furyl)-5,6-dihydropyrazolo[3,4-e][1,4]diazepin-4(1H)-one], the IC50 was found to be 2.16 nM.

With `CCc1nn(C2CCCC2)c2c1C(=O)NCC(C(C)(C)C)=N2` [Example 18, 7-tert-Butyl-1-cyclopentyl-3-ethyl-5,6-dihydropyrazolo[3,4-e][1,4]diazepin-4(1H)-one], the IC50 was 0.53 nM.

For the molecule `CCc1nn(C2CCCC2)c2c1C(=O)NCC(c1cccc(OC)c1)=N2` [Example 19, 1-Cyclopentyl-3-ethyl-7-(3-methoxyphenyl)-5,6-dihydropyrazolo[3,4-e][1,4]diazepin-4(1H)-one], the IC50 was 0.55 nM.

With `CCc1nn(C2CCCC2)c2c1C(=O)NCC(CCC(=O)OC)=N2` [Example 20, Methyl 3-(1-cyclopentyl-3-ethyl-4-oxo-1,4,5,6-tetrahydropyrazolo[3,4-e][1,4]diazepin-7-yl)propanoate], the IC50 was determined as 28.7 nM.

For `CCc1nn(C2CCCC2)c2c1C(=O)NCC(c1ccc(F)cc1)=N2` [Example 21, 1-Cyclopentyl-3-ethyl-7-(4-fluorophenyl)-5,6-dihydropyrazolo[3,4-e][1,4]diazepin-4(1H)-one], the IC50 is 1.05 nM.

As to `CCc1nn(C2CCCC2)c2c1C(=O)NCC(c1ccc(OC(F)(F)F)cc1)=N2` [Example 22, 1-Cyclopentyl-3-ethyl-7-[4-(trifluoromethoxy)phenyl]-5,6-dihydropyrazolo[3,4-e][1,4]diazepin-4(1H)-one], the IC50 is 4.16 nM.

As to `CCc1nn(C2CCCC2)c2c1C(=O)NCC(c1ccc(C#N)cc1)=N2` [Example 23, 4-(1-Cyclopentyl-3-ethyl-4-oxo-1,4,5,6-tetrahydropyrazolo[3,4-e][1,4]diazepin-7-yl)benzonitrile], the IC50 worked out at 1.21 nM.

`CCc1nn(C2CCCC2)c2c1C(=O)NCC(c1ccc(S(C)(=O)=O)cc1)=N2` [Example 24, 1-Cyclopentyl-3-ethyl-7-[4-(methylsulfonyl)phenyl]-5,6-dihydropyrazolo[3,4-e][1,4]diazepin-4(1H)-one]: the IC50 was 3.92 nM.

Turning to `CCc1nn(C2CCCC2)c2c1C(=O)NC(c1ccccc1)C(C)=N2` (stereo not shown) [Example 25, 1-Cyclopentyl-3-ethyl-7-methyl-6-phenyl-5,6-dihydropyrazolo[3,4-e][1,4]diazepin-4(1H)-one], the IC50 is 385 nM.

On to `CCc1nn(C2CCCC2)c2c1C(=O)N(C)CC(c1ccccc1)=N2` [Example 26, 1-Cyclopentyl-3-ethyl-5-methyl-7-phenyl-5,6-dihydropyrazolo[3,4-e][1,4]diazepin-4(1H)-one], for which the half-inhibitory concentration (IC50) stood at 103 nM.

Take `CCc1nn(C2CCCC2)c2c1C(=O)NCC(c1ccc(O)c(C(=O)O)c1)=N2` [Example 27, 5-(1-Cyclopentyl-3-ethyl-4-oxo-1,4,5,6-tetrahydropyrazolo[3,4-e][1,4]diazepin-7-yl)-2-hydroxybenzoic acid]: the IC50 came to 0.52 nM.

For the molecule `CCc1nn(C2CCCC2)c2c1C(=O)NCC(CCC(=O)O)=N2` [Example 28, 3-(1-Cyclopentyl-3-ethyl-4-oxo-1,4,5,6-tetrahydropyrazolo[3,4-e][1,4]diazepin-7-yl)propanoic acid], the IC50 stood at 65.3 nM.

With `CCc1nn(C2CCCC2)c2c1C(=O)NCC(CCC(=O)NCCN(C)C)=N2` [Example 29, 3-(1-Cyclopentyl-3-ethyl-4-oxo-1,4,5,6-tetrahydropyrazolo[3,4-e][1,4]diazepin-7-yl)-N-[2-(dimethylamino)ethyl]propanamide], the IC50 turned out to be 4480 nM.

Take `CCc1nn(C2CCCC2)c2c1C(=O)NCC(c1ccccc1)N2` (stereo not shown) [Example 30, 1-Cyclopentyl-3-ethyl-7-phenyl-5,6,7,8-tetrahydropyrazolo[3,4-e][1,4]diazepin-4(1H)-one]: the IC50 came out at 158 nM.

In the case of `CSc1nn(-c2ccccc2)c2c1C(=O)NCC(c1ccccc1)=N2` [Example 31, 3-(Methylthio)-1,7-diphenyl-5,6-dihydropyrazolo[3,4-e][1,4]diazepin-4(1H)-one], the IC50 was 426 nM.

For the molecule `CCc1nn(C2CCS(=O)(=O)C2)c2c1C(=O)NCC(c1ccccc1)=N2` (stereo not shown) [Example 32, 1-(1,1-Dioxidotetrahydrothien-3-yl)-3-ethyl-7-phenyl-5,6-dihydropyrazolo[3,4-e][1,4]diazepin-4(1H)-one], the IC50 amounted to 5.8 nM.

With `CCc1nn(C2CCSCC2)c2c1C(=O)NCC(c1ccccc1)=N2` [Example 33, 3-Ethyl-7-phenyl-1-tetrahydro-2H-thiopyran-4-yl-5,6-dihydropyrazolo[3,4-e][1,4]diazepin-4(1H)-one], the IC50 stood at 3.9 nM.

In the case of `CCc1nn(C2CC[S+]([O-])CC2)c2c1C(=O)NCC(c1ccccc1)=N2` (stereo not shown) [Example 34, 3-Ethyl-1-(1-oxidotetrahydro-2H-thiopyran-4-yl)-7-phenyl-5,6-dihydropyrazolo[3,4-e][1,4]diazepin-4(1H)-one], the 50% inhibitory concentration (IC50) worked out at 99.1 nM.

The values are drawn from patent publication US20090054413A1, “Novel 5,6-Dihydropyrazolo[3,4-E] [L,4]Diazepin-4 (IH) -One Derivatives for the Treatment of Asthma and Chronic Obstructive Pulmonary Disease” (AstraZeneca AB, priority 2005, published 2009).
